Assay results as given in patent US20230365541A1, “INHIBITOR OF ENHANCER OF ZESTE HOMOLOGUE 2, AND USE THEREOF” (HAISCO PHARMACEUTICALS PTE. LTD., priority 2020, published 2023).

How the values were obtained:
[1] = Pharmacokinetic experiment in mice (intravenous 5 mg/kg or intragastric 30 mg/kg); type: in vivo; settings: male, ICR, mouse, plasma; for AUC: read-out: AUC
Method: The administration was performed according to table 5.
The concentrations of the compounds in EDTA-K2 anticoagulant plasma were determined by the LC-MS/MS method. The linear range of the standard curve of the compounds is 2-2000 ng/mL. After subjected to precipitating proteins with acetonitrile, the samples were analyzed by LC-MS/MS. The standard curve was subjected to a regression calculation using the weighted least square method (W=1/X^2), and quantified by calculating the ratio of test compound peak area to internal standard peak area.
• (1) except to the blank sample, 400 μL of internal standard working solution (Verapamil internal standard concentration in precipitant acetonitrile is 10.0 ng/mL) was added to a 1.5 mL centrifuge tube containing 30 μL of standard curve samples and quality control samples; • 200 μL of internal standard working solution (Verapamil internal standard concentration in precipitant acetonitrile is 10.0 ng/mL) was added to a 1.5 mL centrifuge tube containing 15 μL of unknown samples; • and 400 μL of acetonitrile was added to the blank sample; • (2) the mixture was mixed evenly for about 1 min in a vortex mixer; • (3) centrifugation was carried out at 10000 rpm at 4C for 10 mi; • (4) 175 μL of the supernatant was transferred to a new 96-well polypropylene plate, and then the plate was sealed and placed in a 10° C. sample tray for injection.

CYP1A2 = CYP1A2 (Homo sapiens (Human), UniProt P05177); experiment: Cytochrome P450 isozyme inhibition experiment, CYP1A2; type: in vitro ADME; settings: human liver microsomes
Method: (§1) Experimental objective: the inhibitory effects of test compounds on the activity of human liver microsomal cytochrome P450 isozymes (CYP1A2, CYP2C9, CYP2C19, CYP2D6 and CYP3A4) were determined. […]

CYP2C9 = CYP2C9 (Homo sapiens (Human), UniProt P11712); experiment: Cytochrome P450 isozyme inhibition experiment, CYP2C9; type: in vitro ADME; settings: human liver microsomes
Method: as §1

CYP2C19 = CYP2C19 (Homo sapiens (Human), UniProt P33261); experiment: Cytochrome P450 isozyme inhibition experiment, CYP2C19; type: in vitro ADME; settings: human liver microsomes
Method: as §1

CYP2D6 = CYP2D6 (Homo sapiens (Human), UniProt P10635); experiment: Cytochrome P450 isozyme inhibition experiment, CYP2D6; type: in vitro ADME; settings: human liver microsomes
Method: as §1

CYP3A4 = CYP3A4 (Homo sapiens (Human), UniProt P08684); experiment: Cytochrome P450 isozyme inhibition experiment, CYP3A4; type: in vitro ADME; settings: human liver microsomes, CYP3A4-M
Method: as §1

SU-DHL-6 cells = experiment: SU-DHL-6 cell proliferation test; type: cell-based, human; settings: incubated for 14 days
Method: SU-DHL-6 cells are human B-cell lymphoma cell lines purchased from ATCC and cultured under the following conditions: RPMI-1640+10% FBS+1% double antibody in a 37° C., 5% CO2 incubator. The cells were plated in a 12-well plate, with a cell concentration of 1×10^5 cells/mL. After the cells were plated, the compounds at different concentrations were added and cultured in a 37° C., 5% CO2 incubator. The cells were counted every 3-4 days (Countstar automated cell counter), centrifuged to remove the supernatant, re-diluted to 1×10^5 cells/mL and plated, and then the compounds at different concentrations were further added. After the mixture was incubated for 14 days and the cells were counted, the test was terminated, and the IC50 values were calculated by using the Origen9.2 software.

EZH2 = EZH2 (Homo sapiens (Human), UniProt Q15910); experiment: Test method for EZH2 enzyme activity; type: biochemical; settings: H3K27(21-44) and [3H]-SAM
How it was run: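 EZH2 (3 nM final) preincubated 15 min with compound in Tris-HCl pH 9.0 buffer, then H3K27(21-44) peptide and [3H]-SAM added (mixture at 200 nM and 100 nM) for 60 min at room temperature. Reaction quenched with cold SAM; flashplate scintillation read, inhibition normalized to controls and IC50 fitted.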

[2] = Pharmacokinetic experiment in monkeys; type: in vivo; settings: male, cynomolgus monkey, plasma
Method: Experimental animal: twelve cynomolgus monkeys, 2.4-5.9 kg, male, 3-5.5 years old, purchased from Suzhou Xishan Zhongke Laboratory Animal Co., Ltd, with the production license number of SCXK(SU) 2018-0001.
Before and after the administration, 1.0 mL of blood was taken from the front and rear limb veins of the animals, and placed in an EDTAK2 centrifuge tube. […] Before analysis and detection, all plasma samples were stored at −80° C.

Sequence of CYP2C19 (P33261 whole entry): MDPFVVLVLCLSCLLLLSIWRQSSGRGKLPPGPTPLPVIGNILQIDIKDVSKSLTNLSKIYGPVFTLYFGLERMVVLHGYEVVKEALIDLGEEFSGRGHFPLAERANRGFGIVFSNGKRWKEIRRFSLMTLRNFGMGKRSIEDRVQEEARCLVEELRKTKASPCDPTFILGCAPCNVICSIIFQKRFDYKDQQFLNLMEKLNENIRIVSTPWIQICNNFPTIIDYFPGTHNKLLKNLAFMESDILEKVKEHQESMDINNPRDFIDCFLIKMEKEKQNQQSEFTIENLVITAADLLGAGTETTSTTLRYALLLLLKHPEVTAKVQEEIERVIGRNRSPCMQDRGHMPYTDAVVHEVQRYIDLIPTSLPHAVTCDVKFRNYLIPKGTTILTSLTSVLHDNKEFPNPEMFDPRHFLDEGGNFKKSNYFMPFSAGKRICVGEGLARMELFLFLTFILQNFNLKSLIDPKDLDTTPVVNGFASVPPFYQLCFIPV
Sequence of CYP2D6 (P10635 whole entry): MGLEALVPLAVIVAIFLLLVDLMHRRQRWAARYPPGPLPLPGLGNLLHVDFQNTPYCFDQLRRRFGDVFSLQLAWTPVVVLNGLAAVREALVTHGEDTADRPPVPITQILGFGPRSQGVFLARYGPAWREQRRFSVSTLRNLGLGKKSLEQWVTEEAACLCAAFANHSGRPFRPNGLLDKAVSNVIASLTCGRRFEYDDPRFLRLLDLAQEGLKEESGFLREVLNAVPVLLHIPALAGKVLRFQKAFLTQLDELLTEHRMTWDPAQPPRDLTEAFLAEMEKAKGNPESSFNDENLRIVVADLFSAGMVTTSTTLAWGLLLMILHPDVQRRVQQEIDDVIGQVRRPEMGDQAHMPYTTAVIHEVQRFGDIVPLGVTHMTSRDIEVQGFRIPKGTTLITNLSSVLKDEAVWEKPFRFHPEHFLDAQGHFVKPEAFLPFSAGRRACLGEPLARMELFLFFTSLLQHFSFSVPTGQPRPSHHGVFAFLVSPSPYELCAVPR
Sequence of CYP1A2 (P05177 whole entry): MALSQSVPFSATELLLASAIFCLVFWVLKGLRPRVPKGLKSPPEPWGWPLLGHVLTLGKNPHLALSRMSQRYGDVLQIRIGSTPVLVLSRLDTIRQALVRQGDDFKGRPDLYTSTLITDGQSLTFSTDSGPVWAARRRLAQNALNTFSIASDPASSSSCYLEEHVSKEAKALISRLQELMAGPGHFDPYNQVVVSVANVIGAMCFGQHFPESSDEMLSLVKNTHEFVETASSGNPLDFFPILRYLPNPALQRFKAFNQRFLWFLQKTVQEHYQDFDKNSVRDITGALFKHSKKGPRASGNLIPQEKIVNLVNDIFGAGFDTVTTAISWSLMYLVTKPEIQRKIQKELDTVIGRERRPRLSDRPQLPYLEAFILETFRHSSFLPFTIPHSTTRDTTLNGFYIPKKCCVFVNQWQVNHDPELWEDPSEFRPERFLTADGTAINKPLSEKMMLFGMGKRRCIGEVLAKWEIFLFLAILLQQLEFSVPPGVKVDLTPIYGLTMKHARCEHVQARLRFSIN
Sequence of CYP3A4 (P08684 whole entry): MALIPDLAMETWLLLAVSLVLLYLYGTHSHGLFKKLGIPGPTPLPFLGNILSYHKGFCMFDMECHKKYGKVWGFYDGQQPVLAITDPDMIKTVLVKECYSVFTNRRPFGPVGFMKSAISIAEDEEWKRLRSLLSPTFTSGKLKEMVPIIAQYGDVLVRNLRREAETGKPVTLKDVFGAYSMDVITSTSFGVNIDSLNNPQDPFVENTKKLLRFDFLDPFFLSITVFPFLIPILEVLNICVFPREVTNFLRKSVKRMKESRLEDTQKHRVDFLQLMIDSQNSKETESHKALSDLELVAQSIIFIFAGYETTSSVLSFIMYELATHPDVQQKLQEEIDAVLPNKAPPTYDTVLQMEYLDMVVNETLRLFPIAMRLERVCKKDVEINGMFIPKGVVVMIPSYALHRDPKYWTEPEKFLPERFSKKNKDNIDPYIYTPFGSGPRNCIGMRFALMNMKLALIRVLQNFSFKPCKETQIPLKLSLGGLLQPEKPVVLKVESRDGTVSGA
Sequence of CYP2C9 (P11712 whole entry): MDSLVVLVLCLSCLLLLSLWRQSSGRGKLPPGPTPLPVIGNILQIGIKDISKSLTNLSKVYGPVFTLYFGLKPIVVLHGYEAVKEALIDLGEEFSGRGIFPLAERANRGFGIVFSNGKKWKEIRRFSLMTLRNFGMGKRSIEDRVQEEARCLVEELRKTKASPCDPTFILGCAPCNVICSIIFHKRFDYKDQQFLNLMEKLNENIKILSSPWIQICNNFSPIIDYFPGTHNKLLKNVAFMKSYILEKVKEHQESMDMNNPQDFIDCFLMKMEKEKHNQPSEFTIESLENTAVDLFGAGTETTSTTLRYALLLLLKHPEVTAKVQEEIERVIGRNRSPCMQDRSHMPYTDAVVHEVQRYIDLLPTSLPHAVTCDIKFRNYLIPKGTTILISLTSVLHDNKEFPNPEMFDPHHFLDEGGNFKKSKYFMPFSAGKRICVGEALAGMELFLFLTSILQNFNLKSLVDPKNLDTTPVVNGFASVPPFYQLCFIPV

`Cc1cc(C)c(CNC(=O)c2cc(Cl)c3c(c2C)O[C@@](C)([C@H]2CC[C@H](N(C)C)CC2)O3)c(=O)[nH]1` [Compound I-2, Valemetostat, reference compound] gave a half-life ([1]; iv, 5 mg/kg, IV 5 mg/kg) of 6.31 h, an AUC ([1]; iv, 5 mg/kg, IV 5 mg/kg) of 1180 ng·h/mL and a C0 ([1]; iv, 5 mg/kg, IV 5 mg/kg, read-out: C0) of 2140 ng/mL. The half-life ([1]; po, 30 mg/kg, PO 30 mg/kg) was 3.05 h, the bioavailability ([1]; po, 30 mg/kg, PO 30 mg/kg vs IV 5 mg/kg) was 9.08% and the AUC ([1]; po, 30 mg/kg, PO 30 mg/kg) was 645 ng·h/mL. For the same molecule, the Cmax ([1]; po, 30 mg/kg, PO 30 mg/kg, read-out: Cmax) was 262 ng/mL, the Tmax ([1]; po, 30 mg/kg, PO 30 mg/kg, read-out: Tmax) was 0.25 h and the IC50 (CYP1A2) was > 50 µM. For the same molecule, the IC50 (CYP2C9) was > 50 µM, the IC50 (CYP2C19) was > 50 µM and the IC50 (CYP2D6) was > 50 µM. The IC50 (CYP3A4) was 16.3 µM.
Work on `[2H]C([2H])(NC(=O)c1cc(Cl)c2c(c1C)OC(C)(C1CCC(NC3COC3)CC1)O2)c1c(SC)cc(C)[nH]c1=O` (single isomer, unassigned) [Compound 59, isomer 2, 7-chloro-2,4-dimethyl-N-((6-methyl-4-(methylthio)-2-oxo-1,2-dihydropyridin-3-yl)methyl-d2)-2-(4-(oxetan-3-ylamino)cyclohexyl)benzo[d][1,3]dioxole-5-carboxamide] yielded an IC50 (SU-DHL-6 cells) of 0.00635 µM, an IC50 (EZH2) of 0.00044 µM and an AUC ([2]; IV 3 mg/kg) of 1570 ± 39 ng·h/mL. The C0 ([2]; IV 3 mg/kg) was 2960 ± 601 ng/mL, the half-life ([2]; IV 3 mg/kg) was 2.68 ± 0.14 h and the AUC ([2]; PO 15 mg/kg) was 3310 ± 526 ng·h/mL. For the same molecule, the Cmax ([2]; PO 15 mg/kg) was 2320 ± 562 ng/mL, the Tmax ([2]; PO 15 mg/kg) was 1 h and the half-life ([2]; PO 15 mg/kg) was 5.11 ± 0.32 h. The bioavailability ([2]; PO 15 mg/kg vs IV 3 mg/kg) was 42.1 ± 6.7%, the IC50 (CYP1A2) was > 50 µM and the IC50 (CYP2C9) was > 50 µM. The IC50 (CYP2C19) was > 50 µM, the IC50 (CYP2D6) was > 50 µM and the IC50 (CYP3A4) was > 50 µM.
